Laboratory results from the kinase profiling compilation of Christmann-Franck et al. (2016).
Each block holds one compound with its values, some of them ahead of it.

Columns and labels:
Experiment in all cases: Caliper, Mobility shift assay off-chip
MST1R (human) = MST1R (human) (UniProt Q04912)
DAPK3 (human) = DAPK3 (human) (UniProt O43293)
MARK4 (human) = MARK4 (human) (UniProt Q96L34)
PHKG1 (human) = PHKG1 (human) (UniProt Q16816)
TXK (human) = TXK (human) (UniProt P42681)
ROCK1 (human) = ROCK1 (human) (UniProt Q13464)
Chain of ROCK1 (human) (Q13464 whole entry, looked up): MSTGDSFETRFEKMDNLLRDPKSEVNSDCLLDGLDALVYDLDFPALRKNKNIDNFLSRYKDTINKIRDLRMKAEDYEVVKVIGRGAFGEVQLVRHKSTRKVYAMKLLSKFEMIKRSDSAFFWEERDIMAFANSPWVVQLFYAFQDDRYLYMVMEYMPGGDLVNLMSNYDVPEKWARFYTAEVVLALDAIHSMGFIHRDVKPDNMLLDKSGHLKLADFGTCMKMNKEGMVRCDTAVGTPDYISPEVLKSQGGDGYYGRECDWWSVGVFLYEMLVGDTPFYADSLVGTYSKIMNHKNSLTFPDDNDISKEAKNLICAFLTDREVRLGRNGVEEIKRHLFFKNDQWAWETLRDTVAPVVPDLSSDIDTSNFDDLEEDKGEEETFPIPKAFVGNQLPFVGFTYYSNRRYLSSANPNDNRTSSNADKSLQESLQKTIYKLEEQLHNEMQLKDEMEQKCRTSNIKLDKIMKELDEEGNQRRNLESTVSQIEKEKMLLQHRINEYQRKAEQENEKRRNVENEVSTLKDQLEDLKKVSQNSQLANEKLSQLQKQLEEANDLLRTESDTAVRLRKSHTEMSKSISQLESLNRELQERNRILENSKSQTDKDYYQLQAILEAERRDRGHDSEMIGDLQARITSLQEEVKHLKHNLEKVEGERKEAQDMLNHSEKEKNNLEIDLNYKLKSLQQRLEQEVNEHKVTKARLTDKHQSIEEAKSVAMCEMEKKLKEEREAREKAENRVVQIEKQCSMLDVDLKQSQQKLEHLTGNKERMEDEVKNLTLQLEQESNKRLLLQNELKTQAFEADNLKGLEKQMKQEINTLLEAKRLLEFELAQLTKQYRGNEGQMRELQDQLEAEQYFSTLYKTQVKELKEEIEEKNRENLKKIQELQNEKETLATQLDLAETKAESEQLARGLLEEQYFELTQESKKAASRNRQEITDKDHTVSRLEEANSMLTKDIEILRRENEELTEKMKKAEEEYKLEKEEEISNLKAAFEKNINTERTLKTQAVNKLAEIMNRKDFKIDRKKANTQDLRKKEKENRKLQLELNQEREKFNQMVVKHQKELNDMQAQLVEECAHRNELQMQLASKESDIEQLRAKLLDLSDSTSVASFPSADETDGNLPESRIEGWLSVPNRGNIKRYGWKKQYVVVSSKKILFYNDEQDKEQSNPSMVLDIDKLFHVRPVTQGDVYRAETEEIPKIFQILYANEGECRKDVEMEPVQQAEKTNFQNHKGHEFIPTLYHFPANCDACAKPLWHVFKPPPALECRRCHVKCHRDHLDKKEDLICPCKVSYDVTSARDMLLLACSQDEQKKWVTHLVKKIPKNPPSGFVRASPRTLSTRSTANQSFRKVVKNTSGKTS

EPHB1 (human) = EPHB1 (human) (UniProt P54762)
BLK (human) = BLK (human) (UniProt P51451)
ALK (human) = ALK (human) (UniProt Q9UM73)
DYRK4 (human) = DYRK4 (human) (UniProt Q9NR20)
DYRK3 (human) = DYRK3 (human) (UniProt O43781)
Chain of DYRK3 (human) (O43781 whole entry, looked up): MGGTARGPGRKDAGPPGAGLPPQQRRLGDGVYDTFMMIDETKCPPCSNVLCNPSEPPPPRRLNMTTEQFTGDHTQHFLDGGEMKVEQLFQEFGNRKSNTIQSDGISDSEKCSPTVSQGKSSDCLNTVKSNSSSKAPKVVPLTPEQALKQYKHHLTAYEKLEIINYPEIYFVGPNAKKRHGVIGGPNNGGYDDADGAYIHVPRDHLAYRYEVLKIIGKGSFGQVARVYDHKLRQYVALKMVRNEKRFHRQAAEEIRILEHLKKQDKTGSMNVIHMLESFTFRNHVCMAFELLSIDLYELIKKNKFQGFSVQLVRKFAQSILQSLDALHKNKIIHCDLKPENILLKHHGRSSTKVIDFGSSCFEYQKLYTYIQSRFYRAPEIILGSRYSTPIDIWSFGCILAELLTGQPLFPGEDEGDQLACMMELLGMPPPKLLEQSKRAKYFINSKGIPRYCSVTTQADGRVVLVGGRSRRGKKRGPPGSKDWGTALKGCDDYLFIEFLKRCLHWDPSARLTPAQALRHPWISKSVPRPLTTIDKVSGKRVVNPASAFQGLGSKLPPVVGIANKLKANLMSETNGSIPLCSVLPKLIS

AXL (human) = AXL (human) (UniProt P30530)
Chain of AXL (human) (P30530 whole entry, looked up): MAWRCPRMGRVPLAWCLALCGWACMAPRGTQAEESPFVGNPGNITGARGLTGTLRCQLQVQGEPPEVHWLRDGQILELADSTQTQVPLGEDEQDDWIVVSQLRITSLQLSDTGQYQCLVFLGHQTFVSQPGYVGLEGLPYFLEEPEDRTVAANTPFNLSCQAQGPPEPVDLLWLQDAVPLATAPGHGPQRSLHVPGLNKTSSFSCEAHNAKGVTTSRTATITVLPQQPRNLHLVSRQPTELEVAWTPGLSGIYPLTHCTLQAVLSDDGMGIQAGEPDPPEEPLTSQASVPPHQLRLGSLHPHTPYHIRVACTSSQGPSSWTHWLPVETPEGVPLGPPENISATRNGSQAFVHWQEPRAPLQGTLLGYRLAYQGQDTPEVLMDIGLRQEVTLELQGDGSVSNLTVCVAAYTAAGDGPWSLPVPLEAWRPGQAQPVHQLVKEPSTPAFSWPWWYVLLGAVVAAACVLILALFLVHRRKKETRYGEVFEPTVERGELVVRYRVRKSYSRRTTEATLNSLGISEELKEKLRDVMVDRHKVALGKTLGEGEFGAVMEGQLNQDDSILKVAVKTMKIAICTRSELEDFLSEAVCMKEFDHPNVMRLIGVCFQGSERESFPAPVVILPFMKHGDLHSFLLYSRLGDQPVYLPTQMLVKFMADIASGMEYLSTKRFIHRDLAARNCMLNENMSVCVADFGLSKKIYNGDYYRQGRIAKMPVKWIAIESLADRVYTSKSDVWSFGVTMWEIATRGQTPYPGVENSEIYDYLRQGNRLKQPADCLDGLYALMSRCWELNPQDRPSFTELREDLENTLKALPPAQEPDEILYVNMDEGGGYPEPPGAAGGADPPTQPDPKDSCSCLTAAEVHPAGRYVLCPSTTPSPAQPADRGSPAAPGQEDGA

[1] = biological target: PRKAA2 PRKAB1 PRKAG1 (human) (UniProt Q9Y478+P54646+P54619)
[2] = system: EGFR (human), P00533 [T790M/L858R]
KIT (human) = KIT (human) (UniProt P10721)
CDK5 CDK5R1 p25 (human) = CDK5 CDK5R1 p25 (human) (UniProt Q15078+Q00535)
NTRK3 (human) = NTRK3 (human) (UniProt Q16288)
CAMK2A (human) = CAMK2A (human) (UniProt Q9UQM7)
RET (human) = RET (human) (UniProt P07949)
PIM3 (human) = PIM3 (human) (UniProt Q86V86)
[3] = system: FGFR3 (human), P22607 [K650E]
CDK1 (human) = CDK1 (human) (UniProt P06493)
ITK (human) = ITK (human) (UniProt Q08881)
PRKCI (human) = PRKCI (human) (UniProt P41743)
YES1 (human) = YES1 (human) (UniProt P07947)
Chain of YES1 (human) (P07947 whole entry, looked up): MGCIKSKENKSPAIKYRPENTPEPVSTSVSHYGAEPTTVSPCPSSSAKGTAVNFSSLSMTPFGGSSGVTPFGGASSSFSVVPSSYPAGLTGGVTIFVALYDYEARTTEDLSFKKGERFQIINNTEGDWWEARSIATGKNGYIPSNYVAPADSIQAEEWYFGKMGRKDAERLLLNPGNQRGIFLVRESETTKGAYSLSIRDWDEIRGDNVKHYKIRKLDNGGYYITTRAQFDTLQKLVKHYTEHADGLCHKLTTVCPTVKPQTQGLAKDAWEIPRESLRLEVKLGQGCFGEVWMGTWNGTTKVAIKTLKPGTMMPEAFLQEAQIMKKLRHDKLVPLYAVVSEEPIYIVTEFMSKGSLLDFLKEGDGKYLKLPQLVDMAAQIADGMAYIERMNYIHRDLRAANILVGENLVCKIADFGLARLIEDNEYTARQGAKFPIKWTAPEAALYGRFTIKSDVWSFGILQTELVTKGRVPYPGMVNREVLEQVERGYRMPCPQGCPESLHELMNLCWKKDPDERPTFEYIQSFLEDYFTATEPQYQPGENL

CLK2 (human) = CLK2 (human) (UniProt P49760)
JAK2 JH1 JH2 (human) = JAK2 JH1 JH2 (human) (UniProt O60674)
PASK (human) = PASK (human) (UniProt Q96RG2)
MERTK (human) = MERTK (human) (UniProt Q12866)
RPS6KA6 KD1 KD2 (human) = RPS6KA6 KD1 KD2 (human) (UniProt Q9UK32)
HIPK1 (human) = HIPK1 (human) (UniProt Q86Z02)
CSNK1G3 (human) = CSNK1G3 (human) (UniProt Q9Y6M4)
DAPK1 (human) = DAPK1 (human) (UniProt P53355)

Chain of DAPK3 (human) (O43293 whole entry, looked up): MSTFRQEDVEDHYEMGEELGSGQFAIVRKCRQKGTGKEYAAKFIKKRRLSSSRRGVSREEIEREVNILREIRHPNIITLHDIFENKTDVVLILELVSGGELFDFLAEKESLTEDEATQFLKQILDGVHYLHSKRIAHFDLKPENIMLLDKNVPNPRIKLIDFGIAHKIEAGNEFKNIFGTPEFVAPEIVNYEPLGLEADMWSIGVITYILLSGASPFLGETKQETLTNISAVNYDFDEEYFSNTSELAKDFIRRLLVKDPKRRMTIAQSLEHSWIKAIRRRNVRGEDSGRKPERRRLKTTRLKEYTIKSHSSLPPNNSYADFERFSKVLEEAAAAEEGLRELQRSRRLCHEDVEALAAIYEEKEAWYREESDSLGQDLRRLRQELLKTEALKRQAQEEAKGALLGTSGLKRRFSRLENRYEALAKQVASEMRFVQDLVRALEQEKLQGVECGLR
Chain of PHKG1 (human) (Q16816 whole entry, looked up): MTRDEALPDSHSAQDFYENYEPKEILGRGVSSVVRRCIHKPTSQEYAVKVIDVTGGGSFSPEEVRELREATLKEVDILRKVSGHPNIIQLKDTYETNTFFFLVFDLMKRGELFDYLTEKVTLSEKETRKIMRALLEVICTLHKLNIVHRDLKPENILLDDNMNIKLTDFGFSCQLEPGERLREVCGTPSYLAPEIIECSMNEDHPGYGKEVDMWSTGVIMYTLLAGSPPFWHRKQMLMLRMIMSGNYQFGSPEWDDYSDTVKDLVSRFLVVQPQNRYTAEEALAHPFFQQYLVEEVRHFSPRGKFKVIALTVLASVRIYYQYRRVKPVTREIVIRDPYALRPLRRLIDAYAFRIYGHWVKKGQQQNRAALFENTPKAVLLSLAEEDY
Chain of MARK4 (human) (Q96L34 whole entry, looked up): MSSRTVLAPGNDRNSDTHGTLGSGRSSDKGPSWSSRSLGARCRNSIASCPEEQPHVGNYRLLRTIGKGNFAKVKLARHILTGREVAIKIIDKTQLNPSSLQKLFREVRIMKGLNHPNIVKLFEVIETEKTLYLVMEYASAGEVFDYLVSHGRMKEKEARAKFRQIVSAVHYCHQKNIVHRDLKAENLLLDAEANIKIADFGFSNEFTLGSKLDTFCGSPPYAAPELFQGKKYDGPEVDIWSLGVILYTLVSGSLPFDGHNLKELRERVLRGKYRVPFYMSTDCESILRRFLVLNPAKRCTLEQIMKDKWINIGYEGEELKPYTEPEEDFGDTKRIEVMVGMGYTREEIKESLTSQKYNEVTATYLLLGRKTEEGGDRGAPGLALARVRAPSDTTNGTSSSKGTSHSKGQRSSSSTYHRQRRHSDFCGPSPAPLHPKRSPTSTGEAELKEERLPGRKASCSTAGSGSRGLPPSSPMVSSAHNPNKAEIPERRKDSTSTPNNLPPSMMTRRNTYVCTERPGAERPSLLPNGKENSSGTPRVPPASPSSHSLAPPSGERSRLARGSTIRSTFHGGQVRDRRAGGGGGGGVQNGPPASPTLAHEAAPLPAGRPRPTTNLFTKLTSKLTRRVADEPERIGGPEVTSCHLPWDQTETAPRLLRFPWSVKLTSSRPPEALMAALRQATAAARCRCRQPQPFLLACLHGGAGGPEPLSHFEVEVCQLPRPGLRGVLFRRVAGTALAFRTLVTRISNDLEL

inhibition (MST1R (human); compound 0.1 µM): 23.8%
inhibition (MST1R (human); compound 1.0 µM): 78.2%
inhibition (DAPK3 (human); compound 0.1 µM): 5%
inhibition (DAPK3 (human); compound 1.0 µM): 10.3%
inhibition (MARK4 (human); compound 0.1 µM): 7.3%
inhibition (MARK4 (human); compound 1.0 µM): 16%
inhibition (PHKG1 (human); compound 0.1 µM): -1.3%
inhibition (PHKG1 (human); compound 1.0 µM): 17.4%
inhibition (TXK (human); compound 0.1 µM): 0.6%
inhibition (TXK (human); compound 1.0 µM): 19%
inhibition (ROCK1 (human); compound 0.1 µM): 14.4%
inhibition (ROCK1 (human); compound 1.0 µM): 1.7%
inhibition (EPHB1 (human); compound 0.1 µM): 1.8%
inhibition (EPHB1 (human); compound 1.0 µM): 9.7%
inhibition (BLK (human); compound 0.1 µM): -30.4%
inhibition (BLK (human); compound 1.0 µM): 29.2%
inhibition (ALK (human); compound 0.1 µM): -0.1%
inhibition (ALK (human); compound 1.0 µM): 12.2%
inhibition (DYRK4 (human); compound 0.1 µM): 16.9%
inhibition (DYRK4 (human); compound 1.0 µM): 1.3%
inhibition (DYRK3 (human); compound 0.1 µM): 9.6%
inhibition (DYRK3 (human); compound 1.0 µM): 21.5%
inhibition (AXL (human); compound 0.1 µM): 30.6%
inhibition (AXL (human); compound 1.0 µM): 77.3%
inhibition ([1]; compound 0.1 µM): 3.4%
inhibition ([1]; compound 1.0 µM): 17.6%
inhibition ([2]; compound 0.1 µM): 6.2%
inhibition ([2]; compound 1.0 µM): 2.9%
inhibition (KIT (human); compound 0.1 µM): -0.2%
inhibition (KIT (human); compound 1.0 µM): 8.9%
inhibition (CDK5 CDK5R1 p25 (human); compound 0.1 µM): -5.4%
inhibition (CDK5 CDK5R1 p25 (human); compound 1.0 µM): 11.9%
inhibition (NTRK3 (human); compound 0.1 µM): 39.3%
inhibition (NTRK3 (human); compound 1.0 µM): 83.6%
inhibition (CAMK2A (human); compound 1.0 µM): 4.4%
inhibition (RET (human); compound 0.1 µM): 7.4%
inhibition (RET (human); compound 1.0 µM): 44.1%
inhibition (PIM3 (human); compound 0.1 µM): 4%
inhibition (PIM3 (human); compound 1.0 µM): 0.2%
inhibition ([3]; compound 0.1 µM): 15.1%
inhibition ([3]; compound 1.0 µM): 59.4%
inhibition (CDK1 (human); compound 0.1 µM): 1.3%
inhibition (CDK1 (human); compound 1.0 µM): 4.7%
inhibition (ITK (human); compound 0.1 µM): 7%
inhibition (ITK (human); compound 1.0 µM): 34.9%
inhibition (PRKCI (human); compound 0.1 µM): 3.9%
inhibition (PRKCI (human); compound 1.0 µM): -0.5%
inhibition (YES1 (human); compound 0.1 µM): -7.2%
inhibition (YES1 (human); compound 1.0 µM): 29.9%
inhibition (CLK2 (human); compound 0.1 µM): 3.2%
inhibition (CLK2 (human); compound 1.0 µM): 16.8%
inhibition (JAK2 JH1 JH2 (human); compound 0.1 µM): -35.1%
inhibition (JAK2 JH1 JH2 (human); compound 1.0 µM): 41.2%
inhibition (PASK (human); compound 0.1 µM): -10.1%
inhibition (PASK (human); compound 1.0 µM): 5.9%
inhibition (MERTK (human); compound 0.1 µM): 52.7%
inhibition (MERTK (human); compound 1.0 µM): 94.5%
inhibition (RPS6KA6 KD1 KD2 (human); compound 0.1 µM): 0.5%
inhibition (RPS6KA6 KD1 KD2 (human); compound 1.0 µM): 5.6%
inhibition (HIPK1 (human); compound 0.1 µM): 1%
inhibition (HIPK1 (human); compound 1.0 µM): 5.5%
inhibition (CSNK1G3 (human); compound 0.1 µM): 9.7%
inhibition (CSNK1G3 (human); compound 1.0 µM): 6.5%
inhibition (DAPK1 (human); compound 0.1 µM): 3%
inhibition (DAPK1 (human); compound 1.0 µM): 9.2%
Compound: CN(c1ccc2ccc3ncc(-c4cnn(C)c4)cc3c(=O)c2c1)S(=O)(=O)NCc1ccccn1

inhibition (MST1R (human); compound 0.01 µM): 11.8%
inhibition (MST1R (human); compound 0.1 µM): 37.6%
inhibition (DAPK3 (human); compound 0.01 µM): -1.6%
inhibition (DAPK3 (human); compound 0.1 µM): 0.3%
inhibition (MARK4 (human); compound 0.01 µM): 7.1%
inhibition (MARK4 (human); compound 0.1 µM): 2.2%
inhibition (PHKG1 (human); compound 0.01 µM): 6.4%
inhibition (PHKG1 (human); compound 0.1 µM): 14.9%
inhibition (TXK (human); compound 0.01 µM): -5.5%
inhibition (TXK (human); compound 0.1 µM): 4.8%
inhibition (ROCK1 (human); compound 0.01 µM): 3.1%
inhibition (ROCK1 (human); compound 0.1 µM): 4%
inhibition (EPHB1 (human); compound 0.01 µM): 5.1%
inhibition (EPHB1 (human); compound 0.1 µM): -8%
inhibition (BLK (human); compound 0.01 µM): 0.8%
inhibition (BLK (human); compound 0.1 µM): 15.8%
inhibition (ALK (human); compound 0.01 µM): 17.8%
inhibition (ALK (human); compound 0.1 µM): -2%
inhibition (DYRK4 (human); compound 0.01 µM): 8.3%
inhibition (DYRK4 (human); compound 0.1 µM): 12.1%
inhibition (DYRK3 (human); compound 0.01 µM): 1.8%
inhibition (DYRK3 (human); compound 0.1 µM): 19.6%
inhibition (AXL (human); compound 0.01 µM): -2.8%
inhibition (AXL (human); compound 0.1 µM): 11.7%
inhibition ([1]; compound 0.01 µM): 2.9%
inhibition ([1]; compound 0.1 µM): -0.1%
inhibition ([2]; compound 0.01 µM): 1.8%
inhibition ([2]; compound 0.1 µM): -0.4%
inhibition (KIT (human); compound 0.01 µM): -3.5%
inhibition (KIT (human); compound 0.1 µM): 13.6%
inhibition (CDK5 CDK5R1 p25 (human); compound 0.01 µM): 8.4%
inhibition (CDK5 CDK5R1 p25 (human); compound 0.1 µM): -2%
inhibition (NTRK3 (human); compound 0.01 µM): 8.4%
inhibition (NTRK3 (human); compound 0.1 µM): -0.4%
inhibition (CAMK2A (human); compound 0.01 µM): -12.3%
inhibition (CAMK2A (human); compound 0.1 µM): -3.8%
inhibition (RET (human); compound 0.01 µM): 10.4%
inhibition (RET (human); compound 0.1 µM): 12.1%
inhibition (PIM3 (human); compound 0.01 µM): 7%
inhibition (PIM3 (human); compound 0.1 µM): 4.6%
inhibition ([3]; compound 0.01 µM): -2.1%
inhibition ([3]; compound 0.1 µM): 5.1%
inhibition (CDK1 (human); compound 0.01 µM): -5.7%
inhibition (CDK1 (human); compound 0.1 µM): 1.6%
inhibition (ITK (human); compound 0.01 µM): -2.6%
inhibition (ITK (human); compound 0.1 µM): 15.3%
inhibition (PRKCI (human); compound 0.01 µM): 0.9%
inhibition (PRKCI (human); compound 0.1 µM): 1%
inhibition (YES1 (human); compound 0.01 µM): -1.4%
inhibition (YES1 (human); compound 0.1 µM): -1.7%
inhibition (CLK2 (human); compound 0.01 µM): -6.3%
inhibition (CLK2 (human); compound 0.1 µM): -5.2%
inhibition (JAK2 JH1 JH2 (human); compound 0.01 µM): 8.9%
inhibition (JAK2 JH1 JH2 (human); compound 0.1 µM): 11.9%
inhibition (PASK (human); compound 0.01 µM): 1.5%
inhibition (PASK (human); compound 0.1 µM): 18.4%
inhibition (MERTK (human); compound 0.01 µM): 11%
inhibition (MERTK (human); compound 0.1 µM): 9.5%
inhibition (RPS6KA6 KD1 KD2 (human); compound 0.01 µM): 5.8%
inhibition (RPS6KA6 KD1 KD2 (human); compound 0.1 µM): 3.2%
inhibition (HIPK1 (human); compound 0.01 µM): 1.9%
inhibition (HIPK1 (human); compound 0.1 µM): 4.6%
inhibition (CSNK1G3 (human); compound 0.01 µM): 0.7%
inhibition (CSNK1G3 (human); compound 0.1 µM): -0.7%
inhibition (DAPK1 (human); compound 0.01 µM): 13.1%
inhibition (DAPK1 (human); compound 0.1 µM): 0.1%
Compound: Cn1cc(-c2cnc3ccc4ccc(CS(=O)(=O)NC5CCCCC5)cc4c(=O)c3c2)cn1
